Assay [1] has as its system Escherichia coli ATCC 25922. The assay can be described thus: Minimum inhibitory concentration (MIC), CLSI broth micro-dilution, E. coli. Format: cell-based. The note with it: Escherichia coli, ATCC25922, 22 h, Table 6, cation adjusted Mueller Hinton Broth + 0.002% Tween-80, 35° C. Put shortly: (§1)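 Antibacterial potency is measured as MIC by the CLSI broth dilution method. Bacteria at OD600 0.0005 in Tween-80-supplemented cation-adjusted Mueller Hinton broth face ten twofold compound dilutions for 22 h at 35° C.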

For assay [2], the system named is Methicillin Resistant Staphylococcus aureus strain USA 200. Briefly: Minimum inhibitory concentration (MIC), CLSI broth micro-dilution, S. aureus. Format: cell-based. The note with it: Staphylococcus aureus, MRSA / USA200; Table 6; MRSA USA 200; cation adjusted Mueller Hinton Broth + 0.002% Tween-80; 35° C., 22 hours. Put shortly:
as §1

Take `Cc1nc(-c2ccc(OC3CCCCC3)cc2)nc(C)c1C(=O)N[C@@H](CCN)C(=O)N(C)[C@@H]1C(=O)N[C@@H](C)C(=O)N[C@H](C(=O)NCC#N)Cc2ccc(OCCN)c(c2)-c2cc1ccc2OCCN` (racemic) [Compound 337, rac-(8S,11S,14S)-3,18-bis(2-aminoethoxy)-N-(cyanomethyl)-11-methyl-14-[methyl-[rac-(2S)-4-amino-2-[[2-[4-(cyclohexoxy)phenyl]-4,6-dimethyl-pyrimidine-5-carbonyl]amino]butanoyl]amino]-10,13-dioxo-9,12-diazatricyclo[13.3.1.12,6]icosa-1(18),2(20),3,5,15(19),16-hexaene-8-carboxamide]: the MIC (commonly the least concentration at which growth counts as inhibited) in assay [1] amounted to 0.11 µM; in assay [2], 0.012 µM.

`Cc1nc(-c2ccc(OCCC(C)(C)C)cc2)nc(C)c1C(=O)N[C@@H](CCN)C(=O)N(C)[C@@H]1C(=O)N[C@@H](C)C(=O)N[C@H](C(=O)NCC#N)Cc2ccc(OCCN)c(c2)-c2cc1ccc2OCCN` (racemic) [Compound 338, rac-(8S,11S,14S)-3,18-bis(2-aminoethoxy)-N-(cyanomethyl)-11-methyl-14-[methyl-[rac-(2S)-4-amino-2-[[2-[4-(3,3-dimethylbutoxy)phenyl]-4,6-dimethyl-pyrimidine-5-carbonyl]amino]butanoyl]amino]-10,13-dioxo-9,12-diazatricyclo[13.3.1.12,6]icosa-1(18),2(20),3,5,15(19),16-hexaene-8-carboxamide]: the MIC in assay [1] is 0.13 µM; in assay [2], 0.012 µM.

As for `CCC(CC)Oc1ccc(-c2nc(C)c(C(=O)N[C@@H](CCN)C(=O)N(C)[C@@H]3C(=O)N[C@@H](C)C(=O)N[C@H](C(=O)NCC#N)Cc4ccc(OCCN)c(c4)-c4cc3ccc4OCCN)c(C)n2)cc1` (racemic) [Compound 339, rac-(8S,11S,14S)-3,18-bis(2-aminoethoxy)-N-(cyanomethyl)-11-methyl-14-[methyl-[rac-(2S)-4-amino-2-[[2-[4-(1-ethylpropoxy)phenyl]-4,6-dimethyl-pyrimidine-5-carbonyl]amino]butanoyl]amino]-10,13-dioxo-9,12-diazatricyclo[13.3.1.12,6]icosa-1(18),2(20),3,5,15(19),16-hexaene-8-carboxamide], the values for the MIC in assay [1] and in assay [2] were 0.25 µM and 0.047 µM, respectively.

As for `Cc1nc(-c2ccc(OC3CCCCCC3)cc2)nc(C)c1C(=O)N[C@@H](CCN)C(=O)N(C)[C@@H]1C(=O)N[C@@H](C)C(=O)N[C@H](C(=O)NCC#N)Cc2ccc(OCCN)c(c2)-c2cc1ccc2OCCN` (racemic) [Compound 340, rac-(8S,11S,14S)-3,18-bis(2-aminoethoxy)-N-(cyanomethyl)-11-methyl-14-[methyl-[rac-(2S)-4-amino-2-[[2-[4-(cycloheptoxy)phenyl]-4,6-dimethyl-pyrimidine-5-carbonyl]amino]butanoyl]amino]-10,13-dioxo-9,12-diazatricyclo[13.3.1.12,6]icosa-1(18),2(20),3,5,15(19),16-hexaene-8-carboxamide], the MIC amounted to 0.063 µM in assay [1] and 0.023 µM in assay [2].

Regarding `CCCC(CCC)Oc1ccc(-c2nc(C)c(C(=O)N[C@@H](CCN)C(=O)N(C)[C@@H]3C(=O)N[C@@H](C)C(=O)N[C@H](C(=O)NCC#N)Cc4ccc(OCCN)c(c4)-c4cc3ccc4OCCN)c(C)n2)cc1` (racemic) [Compound 341, rac-(8S,11S,14S)-3,18-bis(2-aminoethoxy)-N-(cyanomethyl)-11-methyl-14-[methyl-[rac-(2S)-4-amino-2-[[4,6-dimethyl-2-[4-(1-propylbutoxy)phenyl]pyrimidine-5-carbonyl]amino]butanoyl]amino]-10,13-dioxo-9,12-diazatricyclo[13.3.1.12,6]icosa-1(18),2(20),3,5,15(19),16-hexaene-8-carboxamide], the MIC in assay [1] is 0.13 µM; in assay [2], 0.016 µM.

These data come from patent US20260274892A1, “MACROCYCLIC BROAD SPECTRUM ANTIBIOTICS” (RQx Pharmaceuticals, Inc., priority 2017, published 2026).
